The values that follow come from patent publication US20240133884A1, “COMPOSITIONS AND METHODS FOR DETECTING TRYPANOSOMA CRUZI INFECTION” (University of Georgia Research Foundation, Inc., priority 2022, published 2024).

“Also recorded” adds a separate entry of the source.

One series relates to T. cruzi mRNA. Description: RNA-Seq of infected Vero cells: parasite mRNA relative to host cell mRNA. In kind it is cell-based, Trypanosoma cruzi. The following applies: as early as 6 hrs after addition (FIG. 5C). The protocol: Vero cells (10^6) were infected with 10^7 CL strain trypomastigotes of T. cruzi for 2 days before treating with either 5 uM benznidazole or 30 nM AN14353. The drug concentration used for treatment was set at 5 times the IC50. Samples were collected at several time points for RNA extraction as previously described (Minning, et al., BMC genomics 10, 370 (2009)). rRNA-depleted RNA library construction and RNA sequencing using Illumina Nextseq 75PE was carried out by Georgia Genomics and Bioinformatics Core (GGBC, University of Georgia, Georgia). Illumina reads with mean quality lower than 30 (Phred Score based) were removed from analysis, then mapped to CL Brener genome (TritrypDB release-33) and African green monkey genome (Osada, et al., DNA Res 21, 673-683 (2014)) using the HiSAT software package v0.1.6^50 with default parameters. The mapping rate was quantified by HTseq v0.6.1 (Anders, et al., Bioinformatics 31, 166-169 (2015)).

In another series the test system is T. cruzi. The protocol:
A total of 22 rhesus macaques that had been confirmed to be serologically- and PCR-positive for T. cruzi were utilized in these studies. Using 19 animals in the treatment group provided 85% power of detecting 100% efficacy. The 19 animals were treated with a 30 mg/kg dose of AN15368 delivered in food treats once a day for 60 days. The remaining three animals on the study were maintained as untreated control animals and received food treats but were not dosed with AN15368.
The selected dose of 30 mg/kg in NHP was determined based upon the following rationale. […] Under light-anesthesia/sedation, peripheral blood samples were collected from each animal prior to treatment and at 7 time points following. Blood analysis (CBC and serum chemistry assays) and physical exams to evaluate the health of the study animals were performed on each animal prior to the beginning of the study and also at three time points during the treatment protocol.
Blood samples from each macaque were collected at various time points and processed for quantification of T. cruzi DNA by real-time qPCR. Between 8-ml of whole blood collected in EDTA anticoagulant tubes was subjected to DNA extraction using the Omega E.Z.N.A. Blood DNA Maxi Kit (Omega Bio-Tek), following the manufacturer's instructions for up to 10 ml whole blood and using a total of 650 μl of elution buffer. Each round of extractions included a negative (no-template) control comprised of 10 ml PBS. The concentration of DNA in the eluted solution was quantified after each extraction using an Epoch microplate spectrophotometer (BioTek).
DNA from each sample was then subjected to a series of two qPCR assays for detection of T. cruzi satellite DNA. […] Positive (DNA extracted from T. cruzi Sylvio X10 clone 4, American Type Culture Collection, ATCC #50800, known concentration 1.7×10^−3 parasite equivalents) and negative (water) controls were included in each PCR plate for both assays. C1000 Touch Bio-Rad CFX96 real-time PCR detection system was used for both assays under the following cycling conditions: (i) initial denaturation, 95°, 3 min; (ii) denaturation, 95° C., 15 s; (iii) annealing, 58° C., 1 min; (iv)×50 cycles. FAM and VIC channels were selected for each read.
Frozen tissues were screened for T. cruzi DNA using 8 mm biopsies (Sklar instruments #96-1130), collecting 3 to 10 individual ˜100 μl tissue punches for each tissue type and one of more pooled sample consisting of five punches from different areas of the tissue, totaling ˜500 μl per pool. The tissues sampled included liver, heart, fat, esophagus, quadricep, bicep, large intestine, and brain, as well as tongue and spleen in a few instances. Two individual and one pooled sample of tissues from an uninfected macaque was collected for each sampling batch. DNA from macaque tissue was extracted and analyzed as previously described (Bustamante, et al., Sci Transl Med 12 (2020)) with the exceptions that the purification was scaled up to accommodate the larger amount of tissue in the pooled samples and the range for the standards was 2.6×10^2-2.6×10^−3 parasite equivalents using the kDNA minicircle S35 and S36 primers.

The next series concerns anti-T. cruzi antibodies. Description: Luminex-based multiplex serological analysis in macaques. To be noted: treated macaques, over 42 months after end of treatment. The class given is in vivo, rhesus macaque (Macaca mulatta). The source says:
For a number of smaller proteins, fusions of up to 2 individual genes are employed for some target proteins in order to expand the array of antibodies being detected while controlling costs and complexity of the assay. (TritrypDb.org identifiers: Tc1=fusion of TcBrA4_0116860 and TcYC6_0028190; Tc2=fusion of TcBrA4_0088420 and TcBrA4_0101960; Tc3=fusion of TcBrA4_0104680 and TcBrA4_0101980; Tc4=fusion of TcBrA4_0028480 and TcBrA4_0088260; Tc5=fusion of TcYC6_0100010 and TcBrA4_0074300; Tc7=fusion of TcYC6_0083710 and TcBrA4_0130080; Tc8=TcYC6_0037170; Tc11=TcYC6_0124160; Tc17=fusion of TcBrA4_0028230 and TcBrA4_0029760; Kn107=TcCLB.508355.250; G10=TcCLB.504199.20). Macaque antibody binding to individual beads in the Multiplex assays was detected with donkey anti-human IgG (H+L) conjugated to phycoerythrin (Jackson ImmunoResearch) in a 1:200 dilution.

Where [1] appears, read: macaques, 30 mg/kg once a day for 60 days, post-treatment time points, 30 mg/kg.

As for `Cc1c(C(=O)N[C@H](C(=O)OCc2ccc(F)c(F)c2)C(C)C)ccc2c1B(O)OC2` [AN14353], in the series with T. cruzi mRNA, the “parasite mRNA in T. cruzi-infected host cells” value was “marked and continuing reduction in parasite mRNA”.

For the compound `Cc1c(C(=O)N[C@H](C(=O)OCC2CCOCC2)C(C)C)ccc2c1B(O)OC2` [AN15368], the “T. cruzi DNA by PCR in post-necropsy tissues” value with T. cruzi (9 treated macaques, 84-99 sample sites/animal) was “negative”. Further, the “overall safety / toxicity” value in the series with T. cruzi (60 day course of treatment in NHPs) was “no overt safety or reproductive health concerns; also recorded: no overt toxicity”. Besides, in the series on T. cruzi (in vivo), the adverse events result is recorded as “No adverse events”; the “mean ALT and ALP, levels of lymphocytes and monocytes in blood” value is listed as “mildly elevated”. For the same compound, in the series with T. cruzi (in words (FIGS. 4A-4K)), the “cure of chronically infected rhesus macaques” value is “uniformly cures chronically infected rhesus macaques”. For the same compound, in the series on T. cruzi (setting [1]), the “culture of parasites from blood (hemoculture)” value is recorded as “remained negative” and the “parasite DNA in blood (PCR)” value was “remained negative”. In the series on T. cruzi (naturally infected NHPs, 30 mg/kg, 60 days), this compound yielded an efficacy / cure of 100%. In the series on anti-T. cruzi antibodies, the “antibody levels to recombinant T. cruzi proteins” value is given as “declines in antibody levels”.
